From patent US12655130B2 (ASSEMBLY BIOSCIENCES, INC., priority 2020, dated 2026)
Like-named read-outs stand apart in the source and are kept apart here.

Test system: HBV viral load (viral production from HepAD38 cells)
Assay: Activity of test compounds on viral production from HepAD38 cells (viral load by qPCR of HBV core sequence)
Assay type: cell-based
Conditions: viral load lowering, 5 days, qPCR of supernatant, read-out: VL HepAD38 EC50 range
Procedure, shortened: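 HepAD38 cells seeded at 50,000/well in tetracycline-free medium with 2% FBS, treated 5 days at 37 °C with compounds from 10 μM top concentration. Supernatant HBV DNA quantified by TaqMan qPCR of core sequence against HBV DNA standards, relative to DMSO wells; viability by CellTiter-Glo; EC50/CC50 by four-parameter logistic fit.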

[1] = Hepatitis B virus, HePAD38, 120 h

`O=C1CC2CC(c3nc4n(c3C(=O)Nc3ccc(F)c(Cl)c3)CCCC4)CC2C1` (stereo not drawn) [Example 81, N-(3-Chloro-4-fluorophenyl)-2-(5-oxooctahydropentalen-2-yl)-5,6,7,8-tetrahydroimidazo[1,2-a]pyridine-3-carboxamide] was tested. Which EC50 did it give?
The EC50 was 10 to 50 nM.

For `O=C(Nc1ccc(F)c(Cl)c1)c1c(C2CC3CC(O)CC3C2)nc2n1CCOC2` (stereo not drawn) [Example 82, N-(3-Chloro-4-fluorophenyl)-2-(5-hydroxyoctahydropentalen-2-yl)-5,6-dihydro-8H-imidazo[2,1-c][1,4]oxazine-3-carboxamide], which EC50 [1] is on record?
The EC50 was 50 to 500 nM.

How did the EC50 [1] turn out when `CC(C)(C)OC(=O)N1CCn2c(nc(C3CC4CC(O)CC4C3)c2C(=O)Nc2ccc(F)c(Cl)c2)C1` (stereo not drawn) [Example 84, tert-Butyl 3-((3-chloro-4-fluorophenyl)carbamoyl)-2-(5-hydroxy-octahydropentalen-2-yl)-5,6-dihydroimidazo[1,2-a]pyrazine-7(8H)-carboxylate] was run?
Its EC50 is 50 to 500 nM.

With `O=C(Nc1ccc(F)c(Cl)c1)c1c(C2CC3CC(O)CC3C2)nc2n1CCNC2` (stereo not drawn) [Example 85, N-(3-chloro-4-fluorophenyl)-2-(5-hydroxyoctahydropentalen-2-yl)-5,6,7,8-tetrahydroimidazo[1,2-a]pyrazine-3-carboxamide] as the molecule, how does the EC50 [1] read?
The EC50 was 50 to 500 nM.

With `CC(=O)N1CCn2c(nc(C3CC4CC(O)CC4C3)c2C(=O)Nc2ccc(F)c(Cl)c2)C1` (stereo not drawn) [Example 87, 7-acetyl-N-(3-chloro-4-fluorophenyl)-2-(5-hydroxyoctahydropentalen-2-yl)-5,6,7,8-tetrahydroimidazo[1,2-a]pyrazine-3-carboxamide] as the molecule, how does the EC50 [1] read?
Its EC50 is under 10 nM.

Which EC50 [1] does the source give for `CC(C)(C)OC(=O)N1CCn2c(nc(C3CC4CC(=O)CC4C3)c2C(=O)Nc2ccc(F)c(Cl)c2)C1` (stereo not drawn) [Example 90, tert-butyl 3-((3-chloro-4-fluorophenyl)carbamoyl)-2-(5-oxooctahydro-pentalen-2-yl)-5,6-dihydroimidazo[1,2-a]pyrazine-7(8H)-carboxylate] here?
Its EC50 is 50 to 500 nM.

How did the EC50 [1] turn out when `CN1CCn2c(nc(C3CC4CC(O)CC4C3)c2C(=O)Nc2ccc(F)c(Cl)c2)C1` (stereo not drawn) [Example 91, N-(3-chloro-4-fluorophenyl)-2-(5-hydroxyoctahydropentalen-2-yl)-7-methyl-5,6,7,8-tetrahydroimidazo[1,2-a]pyrazine-3-carboxamide] was run?
The EC50 was under 10 nM.

With `Cc1nn(C)c(C2(O)CC3CC(c4ncn(C)c4C(=O)Nc4ccc(F)c(Cl)c4)CC3C2)c1F` (stereo not drawn) [Example 92, N-(3-chloro-4-fluorophenyl)-4-(5-(4-fluoro-1,3-dimethyl-1H-pyrazol-5-yl)-5-hydroxyoctahydropentalen-2-yl)-1-methyl-1H-imidazole-5-carboxamide] as the molecule, how does the EC50 [1] read?
Its EC50 is under 10 nM.

How did the EC50 [1] turn out when `COc1cc(C2(O)CC3CC(c4ncn(C)c4C(=O)Nc4ccc(F)c(Cl)c4)CC3C2)n(C)n1` (stereo not drawn) [Example 93, N-(3-chloro-4-fluorophenyl)-4-(5-hydroxy-5-(3-methoxy-1-methyl-1H-pyrazol-5-yl)octahydropentalen-2-yl)-1-methyl-1H-imidazole-5-carboxamide] was run?
The EC50 was under 10 nM.

For `CC(C)c1cc(C2(O)CC3CC(c4ncn(C)c4C(=O)Nc4ccc(F)c(Cl)c4)CC3C2)n(C)n1` (stereo not drawn) [Example 94, N-(3-chloro-4-fluorophenyl)-4-(5-hydroxy-5-(3-isopropyl-1-methyl-1H-pyrazol-5-yl)octahydropentalen-2-yl)-1-methyl-1H-imidazole-5-carboxamide], which EC50 [1] is on record?
The EC50 was under 10 nM.

For `Cn1cnc(C2CC3CC(O)(Cn4ccc(O)n4)CC3C2)c1C(=O)Nc1ccc(F)c(Cl)c1` (stereo not drawn) [Example 95, N-(3-chloro-4-fluorophenyl)-4-(5-hydroxy-5-((3-hydroxy-1H-pyrazol-1-yl)methyl)octahydropentalen-2-yl)-1-methyl-1H-imidazole-5-carboxamide], which EC50 [1] is on record?
The EC50 was 10 to 50 nM.

For `CN(C)c1ccn(CC2(O)CC3CC(c4ncn(C)c4C(=O)Nc4ccc(F)c(Cl)c4)CC3C2)n1` (stereo not drawn) [Example 96, N-(3-chloro-4-fluorophenyl)-4-(5-((3-(dimethylamino)-1H-pyrazol-1-yl)methyl)-5-hydroxyoctahydropentalen-2-yl)-1-methyl-1H-imidazole-5-carboxamide], which EC50 [1] is on record?
The EC50 was under 10 nM.

How did the EC50 [1] turn out when `Cn1cnc(C2CC3CC(O)(Cn4ccc(C(C)(C)C)n4)CC3C2)c1C(=O)Nc1ccc(F)c(Cl)c1` (stereo not drawn) [Example 97, 4-(5-((3-(tert-butyl)-1H-pyrazol-1-yl)methyl)-5-hydroxyoctahydropentalen-2-yl)-N-(3-chloro-4-fluorophenyl)-1-methyl-1H-imidazole-5-carboxamide] was run?
The EC50 was under 10 nM.

For `Cn1cnc(C2CC3CC(O)(c4c(Cl)c(N)nn4C)CC3C2)c1C(=O)Nc1ccc(F)c(Cl)c1` (stereo not drawn) [Example 98, 4-(5-(3-amino-4-chloro-1-methyl-1H-pyrazol-5-yl)-5-hydroxyoctahydropentalen-2-yl)-N-(3-chloro-4-fluorophenyl)-1-methyl-1H-imidazole-5-carboxamide], which EC50 [1] is on record?
The EC50 was under 10 nM.

How did the EC50 [1] turn out when `Cn1cnc(C2CC3CC(O)(c4c(C(F)(F)F)cnn4C)CC3C2)c1C(=O)Nc1ccc(F)c(Cl)c1` (stereo not drawn) [Example 99, N-(3-chloro-4-fluorophenyl)-4-(5-hydroxy-5-(1-methyl-4-(trifluoromethyl)-1H-pyrazol-5-yl)octahydropentalen-2-yl)-1-methyl-1H-imidazole-5-carboxamide] was run?
The EC50 was under 10 nM.

How did the EC50 [1] turn out when `CN(C)S(=O)(=O)c1cc(C2(O)CC3CC(c4ncn(C)c4C(=O)Nc4ccc(F)c(Cl)c4)CC3C2)n(C)n1` (stereo not drawn) [Example 100, N-(3-chloro-4-fluorophenyl)-4-(5-(3-(N,N-dimethylsulfamoyl)-1-methyl-1H-pyrazol-5-yl)-5-hydroxyoctahydropentalen-2-yl)-1-methyl-1H-imidazole-5-carboxamide] was run?
Its EC50 is under 10 nM.

How did the EC50 [1] turn out when `Cn1cnc(C2CC3CC(O)(Cn4ccc(Cl)n4)CC3C2)c1C(=O)Nc1ccc(F)c(Cl)c1` (stereo not drawn) [Example 101, 4-(5-((3-Chloro-1H-pyrazol-1-yl)methyl)-5-hydroxyoctahydropentalen-2-yl)-N-(3-chloro-4-fluorophenyl)-1-methyl-1H-imidazole-5-carboxamide] was run?
Its EC50 is under 10 nM.

With `CC(C)n1nc(N)c(Cl)c1C1(O)CC2CC(c3ncn(C)c3C(=O)Nc3ccc(F)c(Cl)c3)CC2C1` (stereo not drawn) [Example 102, 4-(5-(3-amino-4-chloro-1-isopropyl-1H-pyrazol-5-yl)-5-hydroxyoctahydropentalen-2-yl)-N-(3-chloro-4-fluorophenyl)-1-methyl-1H-imidazole-5-carboxamide] as the molecule, how does the EC50 [1] read?
The EC50 was under 10 nM.

With `Cn1cnc(C2CC3CC(O)(c4c(Cl)c(N)nn4C)CC3C2)c1C(=O)Nc1ccc(F)cc1` (stereo not drawn) [Example 103, 4-(5-(3-amino-4-chloro-1-methyl-1H-pyrazol-5-yl)-5-hydroxyoctahydropentalen-2-yl)-N-(4-fluorophenyl)-1-methyl-1H-imidazole-5-carboxamide] as the molecule, how does the EC50 [1] read?
The EC50 was under 10 nM.

Which EC50 [1] does the source give for `Cn1cnc(C2CC3CC(O)(c4cc(C(C)(C)C#N)nn4C)CC3C2)c1C(=O)Nc1ccc(F)c(Cl)c1` (stereo not drawn) [Example 104, N-(3-chloro-4-fluorophenyl)-4-(5-(3-(2-cyanopropan-2-yl)-1-methyl-1H-pyrazol-5-yl)-5-hydroxyoctahydropentalen-2-yl)-1-methyl-1H-imidazole-5-carboxamide] here?
The EC50 was under 10 nM.

Which EC50 [1] does the source give for `Cn1cnc(C2CC3CC(O)(c4cc(C(C)(C)C(F)(F)F)nn4C)CC3C2)c1C(=O)Nc1ccc(F)c(Cl)c1` (stereo not drawn) [Example 105, N-(3-chloro-4-fluorophenyl)-4-(5-hydroxy-5-(1-methyl-3-(1,1,1-trifluoro-2-methylpropan-2-yl)-1H-pyrazol-5-yl)octahydropentalen-2-yl)-1-methyl-1H-imidazole-5-carboxamide] here?
Its EC50 is under 10 nM.
